Laboratory results published in ChEMBL document CHEMBL1201862, “PubChem BioAssay data set” (2004).
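48-hour exposure; five concentrations; linearly interpolated endpoints. Here, GI50 denotes the concentration required for 50% inhibition of growth.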 The source made the active and inactive calls. Cut-off read from the data, not from the text of the source: active = GI50 up to about 1.1 µM and inactive = higher.

What was measured:
Experiment in all cases: DTP human tumour cell line panel, 48 h
[1] = system: SF-268
[2] = system: LOX IMVI
[3] = system: UO-31
[4] = system: OVCAR-8
[5] = system: Hs-578T
[6] = system: 786-0
[7] = system: PC-3
[8] = system: COLO 205
[9] = system: SNB-75
[10] = system: EKVX
[11] = system: U-251
[12] = system: HCT-116
[13] = system: SF-295
[14] = system: TK-10
[15] = system: MDA-MB-231
[16] = system: Malme-3M
[17] = system: T47D
[18] = system: HOP-92
[19] = system: NCI-H522
[20] = system: RXF 393

Row | Structure (SMILES) | GI50 [1] | GI50 [2] | GI50 [3] | GI50 [4] | GI50 [5] | GI50 [6] | GI50 [7] | GI50 [8] | GI50 [9] | GI50 [10] | GI50 [11] | GI50 [12] | GI50 [13] | GI50 [14] | GI50 [15] | GI50 [16] | GI50 [17] | GI50 [18] | GI50 [19] | GI50 [20]
1 | COc1cc(OC)c2c(C)cc(=O)oc2c1 | 47.9 µM (inactive) | 47.1 µM (inactive) | 20.3 µM (inactive) | 55.7 µM (inactive) | 61.1 µM (inactive) | 52.6 µM (inactive) | > 100 µM (inactive) | 54.1 µM (inactive) | 25.9 µM (inactive) | 50.5 µM (inactive) | 84.7 µM (inactive) | 43.1 µM (inactive) | 75.9 µM (inactive) | 66.4 µM (inactive) | 70.3 µM (inactive) | 53 µM (inactive) | – | – | – | –
2 | CN(C)CC1CCC/C(=C\c2ccc(OC(=O)c3ccc(Cl)cc3)cc2)C1=O (centres undefined) | 4.26 µM (inactive) | 0.493 µM (active) | 1.5 µM (inactive) | 1.58 µM (inactive) | 2.57 µM (inactive) | 0.867 µM (active) | 6.04 µM (inactive) | 1.97 µM (inactive) | 4.12 µM (inactive) | 2.34 µM (inactive) | 1.5 µM (inactive) | 0.832 µM (active) | 3.84 µM (inactive) | 1.95 µM (inactive) | 2.45 µM (inactive) | 2.55 µM (inactive) | 0.757 µM (active) | 2.07 µM (inactive) | – | –
3 | Cc1ccc(S(=O)(=O)N/N=C2/C3C(CC2(C)C)C2(C)CCCC3(C)C2O)cc1 (centres undefined) | 30.5 µM (inactive) | 13.4 µM (inactive) | 26.2 µM (inactive) | 32.7 µM (inactive) | 19 µM (inactive) | 21.3 µM (inactive) | 9.59 µM (inactive) | 16 µM (inactive) | 17.7 µM (inactive) | 45.7 µM (inactive) | 16.3 µM (inactive) | 18.7 µM (inactive) | 15.4 µM (inactive) | 36 µM (inactive) | – | 24 µM (inactive) | 18.2 µM (inactive) | 17.2 µM (inactive) | 19.6 µM (inactive) | –
4 | O=c1c2c(oc3ccccc13)-c1ccccc1OC2 | 57.9 µM (inactive) | 46 µM (inactive) | 28.6 µM (inactive) | 27.9 µM (inactive) | – | 24.4 µM (inactive) | > 100 µM (inactive) | > 10 µM (inactive) | 16.7 µM (inactive) | 53.2 µM (inactive) | 29 µM (inactive) | 29.9 µM (inactive) | > 100 µM (inactive) | > 100 µM (inactive) | 21.1 µM (inactive) | > 100 µM (inactive) | 16.3 µM (inactive) | – | > 100 µM (inactive) | –
5 | O=[N+]([O-])C(/C(Cl)=C(/Cl)N1CCOCC1)=C1\NCCO1 | > 100 µM (inactive) | – | > 100 µM (inactive) | > 100 µM (inactive) | > 100 µM (inactive) | > 100 µM (inactive) | > 100 µM (inactive) | > 100 µM (inactive) | > 100 µM (inactive) | > 100 µM (inactive) | > 100 µM (inactive) | > 100 µM (inactive) | > 100 µM (inactive) | – | > 100 µM (inactive) | > 100 µM (inactive) | > 100 µM (inactive) | – | – | –
6 | CC1=NC(C)(C)N(O)C1(C)C | > 100 µM (inactive) | > 100 µM (inactive) | > 100 µM (inactive) | > 100 µM (inactive) | – | > 100 µM (inactive) | > 100 µM (inactive) | > 100 µM (inactive) | > 100 µM (inactive) | > 100 µM (inactive) | > 100 µM (inactive) | > 100 µM (inactive) | > 100 µM (inactive) | > 100 µM (inactive) | > 100 µM (inactive) | > 100 µM (inactive) | > 100 µM (inactive) | > 100 µM (inactive) | > 100 µM (inactive) | > 100 µM (inactive)
7 | Cc1nn(C(=O)Cc2ccccc2)c2c1C(c1ccc(O)cc1O)SC(=N)N2 (centres undefined) | > 100 µM (inactive) | > 100 µM (inactive) | > 100 µM (inactive) | > 100 µM (inactive) | > 100 µM (inactive) | > 100 µM (inactive) | > 100 µM (inactive) | > 100 µM (inactive) | 17.2 µM (inactive) | > 100 µM (inactive) | – | > 100 µM (inactive) | > 100 µM (inactive) | > 100 µM (inactive) | > 100 µM (inactive) | > 100 µM (inactive) | > 100 µM (inactive) | – | > 100 µM (inactive) | –
8 | O=C(O[C@@H](/C=C/c1ccccc1)P1(=O)N(Cc2ccccc2)[C@@H]2CCCC[C@H]2N1Cc1ccccc1)c1ccccc1 | 5.06 µM (inactive) | 3.15 µM (inactive) | 3.4 µM (inactive) | 3.63 µM (inactive) | 8.89 µM (inactive) | 3.89 µM (inactive) | 3.31 µM (inactive) | 2 µM (inactive) | – | 3.98 µM (inactive) | 3.21 µM (inactive) | 2.61 µM (inactive) | 3.55 µM (inactive) | > 100 µM (inactive) | 2.96 µM (inactive) | 3.6 µM (inactive) | 0.0984 µM (active) | 1.71 µM (inactive) | 4.54 µM (inactive) | –
9 | COc1cccc(CCCNC(=O)Cc2cc(OC)c(OC)cc2CO)c1 | – | > 100 µM (inactive) | > 100 µM (inactive) | > 100 µM (inactive) | > 100 µM (inactive) | > 100 µM (inactive) | > 100 µM (inactive) | > 100 µM (inactive) | > 100 µM (inactive) | > 100 µM (inactive) | > 100 µM (inactive) | > 100 µM (inactive) | – | > 100 µM (inactive) | > 100 µM (inactive) | > 100 µM (inactive) | 39.1 µM (inactive) | > 100 µM (inactive) | – | –
10 | CC(C)(C)OC(=O)N[C@H]1CCN(C2CCCCC2)C1=O | > 100 µM (inactive) | > 100 µM (inactive) | > 100 µM (inactive) | > 100 µM (inactive) | > 100 µM (inactive) | > 100 µM (inactive) | > 100 µM (inactive) | > 100 µM (inactive) | > 100 µM (inactive) | > 100 µM (inactive) | > 100 µM (inactive) | > 100 µM (inactive) | – | > 100 µM (inactive) | > 100 µM (inactive) | – | – | > 100 µM (inactive) | – | –
11 | CCSC1=N/C(=C\c2ccco2)C(Cl)=N1 | > 100 µM (inactive) | > 100 µM (inactive) | > 100 µM (inactive) | > 100 µM (inactive) | > 100 µM (inactive) | > 100 µM (inactive) | > 100 µM (inactive) | > 100 µM (inactive) | > 100 µM (inactive) | > 100 µM (inactive) | > 100 µM (inactive) | > 100 µM (inactive) | > 100 µM (inactive) | > 100 µM (inactive) | > 100 µM (inactive) | – | > 100 µM (inactive) | > 100 µM (inactive) | – | –
12 | CC1=C(C)SC(=C2Sc3[n-]c(=O)[nH]c(=O)c3S2)S1.CCCC[N+](CCCC)(CCCC)CCCC | > 100 µM (inactive) | 44.6 µM (inactive) | > 100 µM (inactive) | 49.4 µM (inactive) | > 100 µM (inactive) | > 100 µM (inactive) | > 100 µM (inactive) | > 100 µM (inactive) | > 100 µM (inactive) | > 100 µM (inactive) | > 100 µM (inactive) | > 100 µM (inactive) | > 100 µM (inactive) | > 100 µM (inactive) | > 100 µM (inactive) | 20.6 µM (inactive) | – | > 100 µM (inactive) | 15.1 µM (inactive) | > 100 µM (inactive)
13 | Clc1ccc(/N=C/c2cc3cc(Br)ccc3nc2Cl)cc1 | 17 µM (inactive) | 6.18 µM (inactive) | 36.8 µM (inactive) | 28.1 µM (inactive) | – | > 50 µM (inactive) | 15.7 µM (inactive) | > 50 µM (inactive) | > 50 µM (inactive) | 29.6 µM (inactive) | – | 12 µM (inactive) | – | – | – | > 50 µM (inactive) | > 50 µM (inactive) | > 50 µM (inactive) | 15.1 µM (inactive) | > 50 µM (inactive)
14 | COC(=O)c1ccccc1C1CN=NC12Cc1c(C)cccc1C2=O (centres undefined) | > 100 µM (inactive) | 45.1 µM (inactive) | 73.1 µM (inactive) | > 100 µM (inactive) | > 100 µM (inactive) | > 100 µM (inactive) | – | > 100 µM (inactive) | 94.4 µM (inactive) | > 100 µM (inactive) | 80.7 µM (inactive) | 69.2 µM (inactive) | 79.4 µM (inactive) | > 100 µM (inactive) | > 100 µM (inactive) | > 100 µM (inactive) | 52.7 µM (inactive) | 29.1 µM (inactive) | > 100 µM (inactive) | > 100 µM (inactive)
15 | COC(=O)/C=C\COCC1C2CCC(=O)C21 (centres undefined) | 4.68 µM (inactive) | 14.5 µM (inactive) | 11.6 µM (inactive) | > 25 µM (inactive) | – | 11.5 µM (inactive) | > 25 µM (inactive) | 14 µM (inactive) | > 25 µM (inactive) | 9.16 µM (inactive) | > 25 µM (inactive) | 16.3 µM (inactive) | > 25 µM (inactive) | 13 µM (inactive) | > 25 µM (inactive) | 4.67 µM (inactive) | – | 5.77 µM (inactive) | 3.86 µM (inactive) | 9.62 µM (inactive)
16 | O=c1oc(-c2ccc(O)c(O)c2)cc2cccc(O)c12 [THUNBERGINOL A] | 19.8 µM (inactive) | – | 14.7 µM (inactive) | 36.6 µM (inactive) | 21.2 µM (inactive) | 19.6 µM (inactive) | 11.1 µM (inactive) | 10.5 µM (inactive) | 23.1 µM (inactive) | 14.1 µM (inactive) | – | 10.3 µM (inactive) | 27.5 µM (inactive) | 4.9 µM (inactive) | – | 31.3 µM (inactive) | 0.871 µM (active) | 2.07 µM (inactive) | 15.4 µM (inactive) | 18.9 µM (inactive)
